Experiment [1] deals with T1, Adenosine receptor A3 (Mus musculus, UniProt Q61618).
T1 sequence (Q61618 whole entry): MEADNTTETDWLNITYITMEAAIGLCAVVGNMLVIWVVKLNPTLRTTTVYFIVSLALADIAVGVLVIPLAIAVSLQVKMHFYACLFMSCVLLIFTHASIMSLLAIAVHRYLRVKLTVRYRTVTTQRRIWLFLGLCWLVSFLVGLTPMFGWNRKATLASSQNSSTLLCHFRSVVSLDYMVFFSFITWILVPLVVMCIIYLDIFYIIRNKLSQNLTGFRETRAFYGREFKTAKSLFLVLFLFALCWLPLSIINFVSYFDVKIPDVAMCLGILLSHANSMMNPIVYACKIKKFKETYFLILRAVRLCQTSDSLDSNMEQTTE
Nature of the experiment: Displacement of [125I]I-AB-MECA from mouse adenosine A3 receptor expressed in HEK293 cells after 60 mins by liquid scintillation counting. On the technique in general: In a radioligand displacement assay an active substance lowers the binding of a labelled ligand.

Experiment [2] deals with Adenosine receptor A2a (Mus musculus) (UniProt Q60613). Nature of the experiment: Displacement of [3H]CGS21680 from mouse adenosine A2A receptor expressed in HEK293 cells at 10 uM after 60 mins by liquid scintillation counting.
Sequence of Adenosine receptor A2a (Mus musculus) (Q60613 whole entry): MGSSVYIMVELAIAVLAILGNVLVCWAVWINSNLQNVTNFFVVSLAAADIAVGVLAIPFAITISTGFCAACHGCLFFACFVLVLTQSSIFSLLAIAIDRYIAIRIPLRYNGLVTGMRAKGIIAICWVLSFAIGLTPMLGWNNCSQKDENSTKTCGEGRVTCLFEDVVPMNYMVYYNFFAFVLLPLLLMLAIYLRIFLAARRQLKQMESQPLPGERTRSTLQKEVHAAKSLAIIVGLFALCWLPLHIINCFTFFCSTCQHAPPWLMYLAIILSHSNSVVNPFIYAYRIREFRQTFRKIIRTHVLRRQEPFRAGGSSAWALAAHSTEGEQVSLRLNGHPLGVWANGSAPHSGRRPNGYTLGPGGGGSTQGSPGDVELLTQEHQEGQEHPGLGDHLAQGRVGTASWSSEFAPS
The target of experiment [3] is T2, Adenosine receptor A1 (Mus musculus) (UniProt Q60612).
T2 sequence (whole entry): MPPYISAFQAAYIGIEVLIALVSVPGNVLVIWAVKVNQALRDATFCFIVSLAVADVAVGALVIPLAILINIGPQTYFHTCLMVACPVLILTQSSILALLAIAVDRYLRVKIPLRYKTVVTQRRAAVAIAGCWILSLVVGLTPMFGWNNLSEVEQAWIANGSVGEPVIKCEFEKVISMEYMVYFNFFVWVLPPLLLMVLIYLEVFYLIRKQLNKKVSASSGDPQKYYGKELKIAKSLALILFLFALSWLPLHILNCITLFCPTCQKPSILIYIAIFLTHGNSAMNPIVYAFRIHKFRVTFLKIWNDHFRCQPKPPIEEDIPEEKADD
Nature of the experiment: Displacement of from mouse adenosine A1 receptor expressed in HEK293 cells at 10 uM after 60 mins by liquid scintillation counting. Further details: reference not given here.

Experiment [4] deals with T3, Adenosine receptor A2b (Homo sapiens) (UniProt P29275).
T3 sequence (whole entry): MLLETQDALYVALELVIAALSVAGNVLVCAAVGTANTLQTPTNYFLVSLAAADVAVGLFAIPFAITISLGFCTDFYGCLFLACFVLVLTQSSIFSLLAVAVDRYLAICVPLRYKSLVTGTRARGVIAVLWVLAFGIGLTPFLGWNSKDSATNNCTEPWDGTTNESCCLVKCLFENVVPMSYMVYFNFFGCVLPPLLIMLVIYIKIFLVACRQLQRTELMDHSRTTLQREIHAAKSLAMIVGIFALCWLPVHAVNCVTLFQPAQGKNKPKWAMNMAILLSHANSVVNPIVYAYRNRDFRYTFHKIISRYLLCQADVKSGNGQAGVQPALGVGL
Nature of the experiment: Agonist activity at human adenosine A2B receptor by cAMP accumulation assay relative to NECA. The format is functional. Background: Changes in cAMP serve as a functional read-out for many G protein-coupled receptors.

Experiment [5] concerns the target T4, Adenosine receptor A3 (Homo sapiens) (UniProt P0DMS8).
T4 sequence (whole entry): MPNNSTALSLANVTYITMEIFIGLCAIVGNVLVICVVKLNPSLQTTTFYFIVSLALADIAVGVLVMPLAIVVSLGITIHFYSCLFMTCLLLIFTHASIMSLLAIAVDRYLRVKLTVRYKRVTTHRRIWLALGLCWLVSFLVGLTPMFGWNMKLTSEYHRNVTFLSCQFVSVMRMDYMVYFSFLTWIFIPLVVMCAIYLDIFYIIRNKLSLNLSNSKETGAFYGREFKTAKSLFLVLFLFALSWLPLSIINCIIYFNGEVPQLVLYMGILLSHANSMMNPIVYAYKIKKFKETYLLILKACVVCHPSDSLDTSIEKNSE
Nature of the experiment: Agonist activity at human recombinant adenosine A3 receptor expressed in CHO cells assessed as inhibition of forskolin-stimulated cAMP production at 10 uM incubated for 30 mins prior to forskolin-stimulation measured after 15 mins by enzyme immunoassay relative to NECA. In kind it is functional, cell-based.

Experiment [6] addresses T5, Adenosine receptor A2a (Homo sapiens, UniProt P29274). Nature of the experiment: Displacement of [3H]CGS21680 from human recombinant adenosine A2A receptor expressed in HEK293 cells after 60 mins by liquid scintillation counting. The format is cell-based.
For experiment [7], the target named is T6, Adenosine receptor A1 (Homo sapiens) (UniProt P30542).
T6 sequence (whole entry): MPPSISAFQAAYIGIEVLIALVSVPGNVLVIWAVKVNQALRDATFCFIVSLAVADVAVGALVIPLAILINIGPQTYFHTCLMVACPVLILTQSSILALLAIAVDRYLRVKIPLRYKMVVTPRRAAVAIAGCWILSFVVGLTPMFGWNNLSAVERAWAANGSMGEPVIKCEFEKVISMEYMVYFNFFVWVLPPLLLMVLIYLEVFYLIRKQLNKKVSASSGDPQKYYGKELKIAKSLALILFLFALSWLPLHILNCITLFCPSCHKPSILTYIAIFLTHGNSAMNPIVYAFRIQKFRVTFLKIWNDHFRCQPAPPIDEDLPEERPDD
Nature of the experiment: Displacement of [3H]R-PIA from human recombinant adenosine A1 receptor expressed in CHO cells at 10 uM after 60 mins by liquid scintillation counting. The format is cell-based.

Experiment [8] deals with T5, Adenosine receptor A2a. Nature of the experiment: Displacement of [3H]CGS21680 from human recombinant adenosine A2A receptor expressed in HEK293 cells at 10 uM after 60 mins by liquid scintillation counting. The format is cell-based.
The target in experiment [9] is T7, Adenosine receptor A3 (Homo sapiens, UniProt P0DMS8).
T7 sequence (P0DMS8 whole entry): T4 sequence (whole entry)
Nature of the experiment: Displacement of [3H]I-AB-MECA from human recombinant adenosine A3 receptor expressed in CHO cells after 60 mins by gamma counting. In kind it is cell-based.

Experiment [10] concerns the target T8, Adenosine receptor A1 (Mus musculus, UniProt Q60612).
T8 sequence (Q60612 whole entry): T2 sequence (whole entry)
Nature of the experiment: Displacement of [125I]I-AB-MECA from mouse adenosine A1 receptor expressed in HEK293 cells after 60 mins by liquid scintillation counting.

The target in experiment [11] is T9, Adenosine receptor A1 (Homo sapiens, UniProt P30542).
T9 sequence (P30542 whole entry): T6 sequence (whole entry)
Nature of the experiment: Displacement of [3H]R-PIA from human recombinant adenosine A1 receptor expressed in CHO cells after 60 mins by liquid scintillation counting. The format is cell-based.

The nature of experiment [12]: Selectivity ratio of Ki for mouse adenosine A3 receptor to Ki for human recombinant adenosine A3 receptor.

The source of these data is ChEMBL document CHEMBL2062514 (J Med Chem, 2012).

For orientation: Ki means the equilibrium dissociation constant of an inhibitor or competing ligand from its target. What is called inhibition is the drop in the measured response relative to a control, in per cent.

T5 sequence (P29274 whole entry): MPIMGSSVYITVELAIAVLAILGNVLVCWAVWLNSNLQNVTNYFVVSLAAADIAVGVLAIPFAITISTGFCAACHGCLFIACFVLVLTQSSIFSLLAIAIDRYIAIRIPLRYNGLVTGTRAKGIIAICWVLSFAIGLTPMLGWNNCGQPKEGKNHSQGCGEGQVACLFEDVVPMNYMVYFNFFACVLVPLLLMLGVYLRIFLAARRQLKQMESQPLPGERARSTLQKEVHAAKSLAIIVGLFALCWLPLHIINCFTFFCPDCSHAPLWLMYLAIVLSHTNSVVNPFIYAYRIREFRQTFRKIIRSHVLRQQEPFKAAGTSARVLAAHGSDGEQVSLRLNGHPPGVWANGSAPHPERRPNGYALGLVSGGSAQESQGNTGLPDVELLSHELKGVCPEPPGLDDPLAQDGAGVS

`CNC(=O)[C@@]12C[C@@H]1[C@@H](n1cnc3c(NCc4cccc(Cl)c4)nc(C#Cc4ccc5ccc6cccc7ccc4c5c67)nc31)[C@H](O)[C@@H]2O`: the values for the inhibition constant (Ki) in experiment [1] and in [6] were 47.6 nM and 3110 nM, respectively. Also, the inhibition worked out at 64% in experiment [2], 8% in experiment [3] and 8% in [7]. The Efficacy in experiment [4] is 20%; in experiment [5] it was 77.8%.

Consider `CNC(=O)[C@@]12C[C@@H]1[C@@H](n1cnc3c(NCc4cccc(Cl)c4)nc(C#Cc4cccc(Cl)c4)nc31)[C@H](O)[C@@H]2O`, for which the inhibition constant (Ki) amounted to 2.39 nM in experiment [1] and 1740 nM in experiment [6]. The values for the inhibition in [2], in experiment [3] and in experiment [7] were 55%, 35% and 4%, respectively. The results for the Efficacy in experiment [4] and in experiment [5] were 20% and 91.5%, respectively.

`CNC(=O)[C@@]12C[C@@H]1[C@@H](n1cnc3c(NCc4cccc(Cl)c4)nc(C#Cc4cc5cccc6ccc7cccc4c7c65)nc31)[C@H](O)[C@@H]2O`: the inhibition worked out at 4% in experiment [8] and 11% in [7]. Moreover, the Efficacy in [5] was 97.1%. In addition, in experiment [9], the Ki was 660 nM.

Consider `CNC(=O)[C@@]12C[C@@H]1[C@@H](n1cnc3c(NCc4cccc(Cl)c4)nc(C#Cc4ccc(N)cc4)nc31)[C@H](O)[C@@H]2O`, for which the figures for the inhibition constant (Ki) in experiment [10], in [1] and in experiment [11] were 261 nM, 0.82 nM and 1520 nM, respectively. In addition, the inhibition in experiment [2] was determined as 5%; in [8], 44%. For the same compound, the Efficacy in experiment [5] turned out to be 76.6%.

Regarding `CNC(=O)[C@@]12C[C@@H]1[C@@H](n1cnc3c(NC)nc(C#Cc4ccc(C(C)=O)cc4)nc31)[C@H](O)[C@@H]2O`, the Efficacy in [4] was found to be 20%; in experiment [5], 87.4%. Besides, the Ki in [6] is 5300 nM. Moreover, the inhibition in experiment [7] amounted to 15%.

For `CNC(=O)[C@@]12C[C@@H]1[C@@H](n1cnc3c(NC)nc(C#Cc4ccccc4Cl)nc31)[C@H](O)[C@@H]2O`, the affinity in experiment [1] corresponds to a Ki of 37.2 nM. The inhibition came out at 2% in experiment [2], 30% in [8], 55% in [3] and 27% in experiment [7]. Also, the Ratio Ki in experiment [12] turned out to be 70. Moreover, the Efficacy in experiment [5] was determined as 84.2%.
